Measurements reported in ChEMBL document CHEMBL5046301, “pH-Responsive Antimicrobial Peptide with Selective Killing Activity for Bacterial Abscess Therapy” (J Med Chem, 2022).
Active and inactive are the calls of the source. The rule behind the calls is not given here.

Experiments:
[1] = test system: Mus musculus; assay: Antiinflammatory activity in ICR cutaneous abscess mouse model assessed as reduction in IL-1alpha expression in serum at 5 mg/kg,ip administered twice a day measured after 72 hrs by ELISA (reference value: 9.9 +/ 0.42 10^1pg/ml); type: functional
[2] = test system: Lipopolysaccharide (LPS); assay: Displacement of BODIPY-TR-cadaverin from Pseudomonas aeruginosa ATCC 27316 Lipopolysaccharide at 1 to 64 uM at pH 6.5 incubated for 1 hr by fluorescence based analysis relative to control; conditions: dose 1-64 µM
[3] = test system: Pseudomonas aeruginosa; assay: Induction of morphological changes in Pseudomonas aeruginosa ATCC 27853 assessed as change in intracellular contents at 2 uM at pH 6.5 incubated for 1 hr by TEM analysis; type: functional, organism-based
[4] = test system: Staphylococcus aureus; assay: Antibacterial activity against methicillin-resistant Staphylococcus aureus ATCC 43300 assessed as inhibition of bacterial growth at pH 7.4 incubated for 24 hrs by NCCLS protocol based method; type: functional
[5] = test system: Salmonella typhimurium; assay: Antibacterial activity against Salmonella enterica subsp. enterica serovar Typhimurium C77-31 assessed as inhibition of bacterial growth at pH 6.5 incubated for 24 hrs by NCCLS protocol based method; type: functional
[6] = test system: Mus musculus; assay: Antiinflammatory activity in ICR cutaneous abscess mouse model assessed as reduction in IL-1beta expression in serum at 5 mg/kg,ip administered twice a day measured after 72 hrs by ELISA (reference value: 9.9 +/ 0.47 10^1pg/ml); type: functional
[7] = test system: Staphylococcus epidermidis; assay: Antibacterial activity against Staphylococcus epidermidis ATCC 12228 assessed as inhibition of bacterial growth at pH 6.5 incubated for 24 hrs by NCCLS protocol based method; type: functional
[8] = test system: Staphylococcus epidermidis; assay: Antibacterial activity against Staphylococcus epidermidis ATCC 12228 assessed as inhibition of bacterial growth at pH 7.4 incubated for 24 hrs by NCCLS protocol based method; type: functional
[9] = test system: Pseudomonas aeruginosa; assay: Antipseudomonal activity against Pseudomonas aeruginosa ATCC 27853 infected in ICR cutaneous abscess mouse model assessed as reduction in lesion area at 5 mg/kg,ip administered twice a day measured after 72 hrs (reference value: […]); type: functional
[10] = Hemolytic activity against human RBC assessed as hemoglobin release at pH 6.5 incubated for 1 hrs; type: toxicity, cell-based; conditions: erythrocyte, pH 6.5, 1 h
[11] = test system: Pseudomonas aeruginosa; assay: Antimicrobial activity against Pseudomonas aeruginosa ATCC 27853 infected in ICR cutaneous abscess mouse model assessed as reduction in colony forming units at 5 mg/kg,ip administered twice a day measured after 72 hrs (reference value: 5.08 +/ 1.84 10^10 CFU/mL ); type: functional
[12] = test system: Pseudomonas aeruginosa; assay: Induction of morphological changes in Pseudomonas aeruginosa ATCC 27853 assessed as disruption in cell membrane at 2 uM at pH 7.4 incubated for 1 hr by SEM analysis; type: functional, organism-based
[13] = test system: Lipopolysaccharide (LPS); assay: Displacement of BODIPY-TR-cadaverin from Pseudomonas aeruginosa ATCC 27316 Lipopolysaccharide at 1 to 64 uM at pH 7.4 incubated for 1 hr by fluorescence based analysis relative to control; conditions: dose 1-64 µM

H-FLEHLIPHVIHGLVHAIHH-NH2
Activity [1]: 6.67 10^1pg/ml | Activity [2]: 100% | Activity [3]: Active | MIC [4]: > 64 µM | MIC [5]: 8 µM | Activity [6]: 6.93 10^1pg/ml | MIC [7]: > 64 µM | MIC [8]: > 64 µM | Activity [9]: 2.97 10^1/mm2 | MHC10 [10]: > 128 µM | Activity [11]: 2.16 10^9CFU/ml | Activity [12]: inactive | Activity [13]: 22.9%
